Measurements published in patent publication US20240002425A1, “NOVEL AMINOALKYL GLUCOSAMINIDE 4-PHOSPHATE DERIVATIVE” (DAIICHI SANKYO COMPANY, LIMITED, priority 2020, published 2024).

Assays:
Format in all cases: in vivo, mouse
[1] = test system: cervical lymph node immune cells; assay: Cry j 1-specific cell-mediated immunity assay (cervical lymph node cells); design: IFN-7 produced by Cry j 1 stimulation / IL-4 produced by Cry j 1 stimulation: unit not given here; details: cervical lymph node cells after sublingual administration with Japanese cedar pollen antigen
Experimental: Cervical lymph node was collected, then pooled for each group, and ground in PBS (1% BSA). The resultant was passed through a 70 μm strainer. […] Cells were recovered with RPMI/FBS/ps, and the number of cells was prepared to 2×5×10^6 cells/mL.

[2] = test system: Japanese cedar pollen antigen (Cry j 1); assay: Immunostimulatory effect on Japanese cedar pollen antigen by sublingual administration (anti-Cry j 1 IgG or IgA); details: sublingual with Japanese cedar pollen antigen
Experimental: The compound described in Example 24 was used to study its immunostimulatory effect on a Japanese cedar pollen antigen by sublingual administration.
Allergen sensitization was performed by subcutaneously administering 50 μL of Japanese cedar pollen antigen extracts (allergen scratch extracts “Torii” Japanese cedar pollen, Torii Pharmaceutical Co., Ltd.) to the mouse tail root 3 and 1 weeks before the start of sublingual administration. Blood was collected 4 days after the second sensitization, and anti-Cry j 1 IgG was measured in accordance with the subsequent section. Mice were grouped such that their measured values were evenly distributed among the groups. Sublingual administration (sublingual allergen immunotherapy model) was started from 3 days thereafter.
The antigen used was a Japanese cedar pollen antigen (5000 JAU CEDARCURE®, Torii Pharmaceutical Co., Ltd.) dissolved in 100 μL of PBS. The compound of Example 24 was dissolved in injectable water (Otsuka Pharmaceutical Co., Ltd.) to prepare a 5 mg/mL solution. The antigen and the compound of Example 24 were mixed in equal amounts immediately before administration.
Each mouse was allowed to refrain from eating and drinking from 1 hour before sublingual administration. […]
25 μL of 10 μg/mL ImmunoPure Streptavidin (Thermo Fisher Scientific Inc., Cat No. 21125) was added to each well of 96 Well Micro Plate (Corning, Inc., Cat No. 3690), which was then left standing overnight at 4° C. […] The plate was left standing at room temperature for 10 minutes, and 30 μL of TMB Stop Solution was then added to each well, followed by the measurement of absorbance at 450 nm.
Positive serum was used as a standard specimen of serum, and anti-Cry j 1 IgG or IgA contained therein was set to 1000 units/mL. […] An evaluation specimen was diluted 1000-fold with an ELISA solution and measured, and the unit value of anti-Cry j 1 IgG or IgA in the evaluation specimen was determined using the calibration curve. […]

[3] = test system: mast cell degranulation reaction mediated by anti-Cry j 1 IgE; assay: Suppression of mast cell degranulation by immune serum-derived IgG; details: IgG from serum of SLIT mice, 200 ng/mL Cry j 1 stimulation; vs No-SLIT and Japanese Cedar Pollen SLIT groups (FIG. 17)
Experimental: IgG was purified from 200 μL of serum of each mouse individual of the allergen immunotherapy model in accordance with the protocol of Protein G HP spin trap (Cytiva, 28-9031-34). The solvent in the purified IgG was replaced with 50 μL of Tyrode's solution using Vivaspin 500, 10 kDa MWCO Polyethersulfone (Cytiva, 28-9322-25). Cry j 1 (2×10×200 ng/mL, 1.5 μL, Tyrode's solution) was added to the purified IgG (13.5 μL, Tyrode's solution), and the mixture was left standing at room temperature for 1 hour in the dark. The mast cells sensitized with anti-Cry j 1 IgE were treated with 10 μL of this specimen as a test substance, and the amount of the mast cell degranulation was measured (final concentration: 200 ng/mL, Cry j 1 stimulation).

In the case of CCCCCCCCCCC[C@H](CC(=O)N[C@@H](CO[C@@H]1O[C@H](CO[C@]2(C(=O)O)C[C@@H](O)[C@@H](O)[C@@H]([C@H](O)CO)O2)[C@@H](OP(=O)(O)O)[C@H](OC(=O)C[C@@H](CCCCCCCCCCC)OC(=O)CCCCCCCCC)[C@H]1NC(=O)C[C@@H](CCCCCCCCCCC)OC(=O)CCCCCCCCC)CC(=O)O)OC(=O)CCCCCCCCC.CNC[C@H](O)[C@@H](O)[C@H](O)[C@H](O)CO.CNC[C@H](O)[C@@H](O)[C@H](O)[C@H](O)CO.CNC[C@H](O)[C@@H](O)[C@H](O)[C@H](O)CO.CNC[C@H](O)[C@@H](O)[C@H](O)[C@H](O)CO [Example 24, Tetrameglumine (3R)-3-{[(3R)-3-(decanoyloxy)tetradecanoyl]amino}-4-({3-O-[(3R)-3-(decanoyloxy)tetradecanoyl]-2-{[(3R)-3-(decanoyloxy)tetradecanoyl]amino}-2-deoxy-6-O-(3-deoxy-α-D-manno-oct-2-ulopyranonosyl)-4-O-phosphono-β-D-glucopyranosyl}oxy)butanoate], the “IL-10 produced by Cry j 1 stimulation” value ([1]; 44 hours culture (FIG. 12)) is reported as “strongly induced”, the “IFN-7 produced by Cry j 1 stimulation” value ([1]; 44 hours culture (FIG. 13)) is reported as no more than 9.77 and the “IL-4 produced by Cry j 1 stimulation” value ([1]; 44 hours culture (FIG. 14)) is reported as no more than 9.77. For the same molecule, the “anti-Cry j 1 IgA in nasal wash” value ([2]; 5 weeks (FIG. 11)) was “induced at a high level”, the “anti-Cry j 1 IgG in serum” value ([2]; vs No-SLIT and Japanese Cedar Pollen SLIT groups (FIG. 9)) was “induced at a higher level” and the “anti-Cry j 1 IgA in serum” value ([2]; vs No-SLIT and Japanese Cedar Pollen SLIT groups (FIG. 10)) was “induced at a higher level”. For the same molecule, the “mast cell degranulation with IgG purified from mouse serum” value [3] was “suppressed”.
